Columns and labels:
[1] = test system: advanced urothelial carcinoma; settings: luminal 1 subtype compared with other bladder cancer subtypes; cited from earlier work
[2] = test system: CD38+ T cells in peripheral blood; experiment: BLC2002 phase 1b immune cell profiling of blood by flow cytometry (T cell activation); type: in vivo, human; settings: FIG. 4c; E8RJ cohort at C1D15, erdafitinib treatment alone (run-in)
Procedure: Blood for immune cell profiling were collected at four time points (C1D1, C1D15, C2D1 and C3D1) and subjected to flow cytometry analysis on a real time basis. T cell activation is quantified as fold increase in the proportions of 1) CD38+CD3, CD38+CD4, or CD38+CD8 T cells out of lymphocytes or CD3 T cell populations, and 2) CD38+ cells out of CD4+ or CD8+T cell populations, compared to the baseline proportion levels at C1D1.
Longitudinal blood samples were analyzed from DL2A (E8J cohort: Erda 8 mg+cetrelimab 240 mg), DL2B (E8RJ cohort: Erda 8 mg 28 days run-in +cetrelimab 240 mg), and DL2 (EJ cohort: Erda 8 mg with the potential dose adjustments to 9 mg depending on phosphate levels measured on C1D15+cetrelimab 240 mg).

Row | Compound | response rate by bladder cancer molecular subtype [1] | proportion of CD38+CD8 T cells compared to baseline C1D1 [2]
1 | atezolizumab: checkpoint inhibitor; antibody that blocks the interaction between PD-1 and PD-L1 | lowest response rate | 
2 | nivolumab: checkpoint inhibitor; antibody that blocks the interaction between PD-1 and PD-L1 | lowest response rate | 
3 | COc1cc(OC)cc(N(CCNC(C)C)c2ccc3ncc(-c4cnn(C)c4)nc3c2)c1 [erdafitinib, N-(3,5-dimethoxyphenyl)-N′-(1-methylethyl)-N-[3-(1-methyl-1H-pyrazol-4-yl)quinoxalin-6-yl]ethane-1,2-diamine] |  | dramatically increased
